The values below come from US5945561A, “Retinoid-like compounds” (Bristol-Myers Squibb Company, priority 1998, dated 1999).

Experiment [1] has as its system trauma-induced caecal adhesions in female Wistar rat. The experiment is described as follows: Trauma-induced caecal adhesion model in rats (oral treatment once daily for 7 days, examined on seventh postoperative day). Conditions: 1 × daily for 7 days, N = 5, female Wistar rats; for Mean number of adhesions/rat +/- SD: vehicle (peanut oil) 15.4 +/- 4.8; for Mean Adhesion Severity/Rat +/- SD: vehicle (peanut oil) 39.2 +/- 15. The experiment is classed as in vivo. As for the experimental part: Models of peritoneal adhesions induced by surgical trauma have been used to predict the clinical activity of a number of marketed anti-adhesion barrier devices. One such model is the trauma-induced caecal adhesion model in rats.
Adult female Wistar rats were used in our studies. The trauma induction was carried out using aseptic conditions in animals anesthetized with a mixture of Ketamine (100 mg/kg) and Rompun (10 mg/kg) given IP. A 2 cm midline abdominal incision was made and the caecum was exteriorized. Both sides of the caecum were abraded with a dry gauze until there was evidence of punctate bleeding. After replacing the organ in the abdominal cavity, the incision was closed. Trauma to the caecum produces fibrous scar tissue or adhesions to adjacent organs, peritoneal wall, or the omentum. Animals were treated with test compound orally. Oral treatments were administered once daily for up to 7 days.
On the seventh postoperative day, the animals were sacrificed and the peritoneal cavity was exposed and examined for adhesions. Three criteria that were used to evaluate the adhesions are: severity of the adhesions, extent or area of the ceacum involved with adhesions and the number of adhesions formed in each animal. Statistical analysis of the data was performed using students' T test. The following scoring system was used:
1.0 = easily separable, filmy, non-vascularized adhesions
covering 25% of the caecum;
2.0 = dense adhesions separated by blunt dissection and in-
volving 50% of the caecum;
3.0 = dense, fibrous, vascularized adhesions requiring sharp
dissection and covering 75% of the caecum;
4.0 = severe, dense, vascularized adhesions unable to
separate without tearing the adjacent membranes and
covering greater than 75% of the caecum.
The Dose Dependent Effect of Orally Dosed Test Compound on Trauma-induced Ceacal Adhesions in Female Wistar Rat

The next experiment deals with HL60 cells. Put plainly: Differentiation and apoptosis of HL60 cells (NBT staining). Conditions: culture up to 9 days; for EC50 (culture day necessary to convert cells into a differentiated or apoptosed phenotype): HL60 cells, 1 μm compound, NBT staining. The experiment is classed as cell-based. The text has this:
At the end of each day of the culture period, cells were washed and stained with NBT (nitro blue tetrazolium) and counted.

The structures appear in SMILES notation.

For `CC1(C)CC=C(c2ccccc2)c2cc3cc(-c4ccc(C(=O)O)cc4)ccc3cc21` [Example 1], the “Mean number of adhesions/rat +/- SD” value in experiment [1] (3 mg/kg oral) is on record as 14.6 +/- 2.7; in experiment [1] (10 mg/kg oral) it was 12.2 +/- 1.6; in experiment [1] (25 mg/kg oral, * p = 0.03), 6.8 +/- 2.4. Also, the “Mean Adhesion Severity/Rat +/- SD” value in experiment [1] (3 mg/kg oral) is 36 +/- 7.0; in experiment [1] (10 mg/kg oral) it was 30.2 +/- 5.5; in experiment [1] (25 mg/kg oral, * p = 0.03), 14.8 +/- 5.6. For the same compound, in the experiment on HL60 cells (1 μm, result in words), the “differentiation and apoptosis of HL60 cells, comparison with t-RA” value was “comparable to t-RA in this assay”. For the same compound, in the experiment on HL60 cells, the “EC50 (culture day necessary to convert cells into a differentiated or apoptosed phenotype)” value was 6.0 days.
`CC1=C(/C=C/C(C)=C/C=C/C(C)=C/C(=O)O)C(C)(C)CCC1` [tRA, all-trans retinoic acid, reference compound]: the “EC50 (culture day necessary to convert cells into a differentiated or apoptosed phenotype)” value in the experiment on HL60 cells turned out to be 3.2 days.
